PubChem BioAssay AID1963866 (Molecular Pharmacology Branch, DTP, NCI, 2024)

Tested on: PDC KRAS tumor spheroids with HUVEC/MSC, viability
Test: Anticancer human tumor 349418-098-R-PDC patient-derived lung adenocarcinoma cell line growth inhibition [KRAS2]
Conditions: for IC50: curve of first compound; for viability, T/C: stronger effect = lower value
Outline: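 Combination screen of spheroid viability in tumor-cell co-cultures with endothelial (HUVEC) and mesenchymal stem cell stroma. Each agent was tested in half-log dilutions, topping at clinical Cmax or at 10 microM without a known Cmax.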

[1] = second compound 0.0316 µM, first compound 0.0316 µM
[2] = second compound 0.0316 µM, first compound 0.1 µM
[3] = second compound 0.0316 µM, first compound 0.316 µM
[4] = second compound 0.0316 µM, first compound 1 µM
[5] = second compound 0.0316 µM, first compound 3.16 µM
[6] = second compound 0.0316 µM, first compound 10 µM
[7] = second compound 0.1 µM, first compound 0.0316 µM
[8] = second compound 0.1 µM, first compound 0.1 µM
[9] = second compound 0.1 µM, first compound 0.316 µM
[10] = second compound 0.1 µM, first compound 1 µM
[11] = second compound 0.1 µM, first compound 3.16 µM
[12] = second compound 0.1 µM, first compound 10 µM
[13] = second compound 0.316 µM, first compound 0.0316 µM
[14] = second compound 0.316 µM, first compound 0.1 µM
[15] = second compound 0.316 µM, first compound 0.316 µM
[16] = second compound 0.316 µM, first compound 1 µM
[17] = second compound 0.316 µM, first compound 3.16 µM
[18] = second compound 0.316 µM, first compound 10 µM
[19] = second compound 1 µM, first compound 0.0316 µM
[20] = second compound 1 µM, first compound 0.1 µM
[21] = second compound 1 µM, first compound 0.316 µM
[22] = second compound 1 µM, first compound 1 µM
[23] = second compound 1 µM, first compound 3.16 µM
[24] = second compound 1 µM, first compound 10 µM
[25] = second compound 3.16 µM, first compound 0.0316 µM
[26] = second compound 3.16 µM, first compound 0.1 µM
[27] = second compound 3.16 µM, first compound 0.316 µM
[28] = second compound 3.16 µM, first compound 1 µM
[29] = second compound 3.16 µM, first compound 3.16 µM
[30] = second compound 3.16 µM, first compound 10 µM
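Also: spheroids exposed to compounds for seven days before readout.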

Structure (SMILES)	IC50 (second compound 0.0316 µM) [nM]	IC50 (second compound 0.1 µM) [nM]	IC50 (second compound 0.316 µM) [nM]	IC50 (second compound 1 µM) [nM]	IC50 (second compound 3.16 µM) [nM]	viability, T/C [1] [%]	viability, T/C [2] [%]	viability, T/C [3] [%]	viability, T/C [4] [%]	viability, T/C [5] [%]	viability, T/C [6] [%]	viability, T/C [7] [%]	viability, T/C [8] [%]	viability, T/C [9] [%]	viability, T/C [13] [%]	viability, T/C [14] [%]	viability, T/C [19] [%]	viability, T/C [20] [%]	viability, T/C [25] [%]	viability, T/C [26] [%]	also measured
COc1cc(Nc2ncc3c(n2)-c2ccc(Cl)cc2C(c2c(F)cccc2OC)=NC3)ccc1C(=O)O + C=CC(=O)N1CCN(c2nc(OCC3CCCN3C)nc3c2CCN(c2cccc4cccc(C)c24)C3)CC1CC#N	41	55.2	< 31.6	< 31.6	< 31.6	55.8	29.1	33.7	28.3	28.1	21.2	60.8	36.3	36.3	49.7	20.5	24	24	0.09	0.09	viability, T/C [10]: 26.1%; viability, T/C [11]: 28.2%; viability, T/C [12]: 25.4%; viability, T/C [15]: 27.8%; viability, T/C [16]: 31.9%; viability, T/C [17]: 20.2%; viability, T/C [18]: 19.4%; viability, T/C [21]: 21.8%; viability, T/C [22]: 19.7%; viability, T/C [23]: 16.2%; viability, T/C [24]: 17%; viability, T/C [27]: 0.11%; viability, T/C [28]: 0.08%; viability, T/C [29]: 0.49%; viability, T/C [30]: 0.12%
COc1cc2nccc(Oc3ccc(NC(=O)C4(C(=O)Nc5ccc(F)cc5)CC4)cc3)c2cc1OC + C=CC(=O)N1CCN(c2nc(OCC3CCCN3C)nc3c2CCN(c2cccc4cccc(C)c24)C3)CC1CC#N	1560	1570	1530	588	< 31.6	96.3	96.9	92.2	72.5	10.1	19.4	88.5	95.8	93.7	93.2	88.6	73.5	79.7	0.14	0.28	viability, T/C [10]: 74.6%; viability, T/C [11]: 7.5%; viability, T/C [12]: 15.7%; viability, T/C [15]: 85.3%; viability, T/C [16]: 72.8%; viability, T/C [17]: 7.47%; viability, T/C [18]: 15.3%; viability, T/C [21]: 68.4%; viability, T/C [22]: 33.7%; viability, T/C [23]: 1.78%; viability, T/C [24]: 0.85%; viability, T/C [27]: 0.29%; viability, T/C [28]: 0.22%; viability, T/C [29]: 0.19%; viability, T/C [30]: 0.14%
Cn1ncnc1[C@H]1c2n[nH]c(=O)c3cc(F)cc(c23)N[C@@H]1c1ccc(F)cc1 + C=CC(=O)N1CCN(c2nc(OCC3CCCN3C)nc3c2CCN(c2cccc4cccc(C)c24)C3)CC1CC#N	> 100	> 100	> 100	> 100	< 0.316	86.8	74.9	–	–	–	–	74.3	75.9	–	79.2	68	70.2	58.8	0.72	0.18	viability, T/C (second compound 0.0316 µM, first compound 0.000316 µM): 98.3%; viability, T/C (second compound 0.0316 µM, first compound 0.001 µM): 93.3%; viability, T/C (second compound 0.0316 µM, first compound 0.00316 µM): 84.3%; viability, T/C (second compound 0.0316 µM, first compound 0.01 µM): 85.5%; viability, T/C (second compound 0.1 µM, first compound 0.000316 µM): 93.7%; viability, T/C (second compound 0.1 µM, first compound 0.001 µM): 96.9%; viability, T/C (second compound 0.1 µM, first compound 0.00316 µM): 83.6%; viability, T/C (second compound 0.1 µM, first compound 0.01 µM): 80.3%; viability, T/C (second compound 0.316 µM, first compound 0.000316 µM): 94.8%; viability, T/C (second compound 0.316 µM, first compound 0.001 µM): 97.9%; viability, T/C (second compound 0.316 µM, first compound 0.00316 µM): 85.7%; viability, T/C (second compound 0.316 µM, first compound 0.01 µM): 85.7%; viability, T/C (second compound 1 µM, first compound 0.000316 µM): 84.4%; viability, T/C (second compound 1 µM, first compound 0.001 µM): 82.8%; viability, T/C (second compound 1 µM, first compound 0.00316 µM): 68.6%; viability, T/C (second compound 1 µM, first compound 0.01 µM): 75.2%; viability, T/C (second compound 3.16 µM, first compound 0.000316 µM): 0.16%; viability, T/C (second compound 3.16 µM, first compound 0.001 µM): 0.14%; viability, T/C (second compound 3.16 µM, first compound 0.00316 µM): 2.18%; viability, T/C (second compound 3.16 µM, first compound 0.01 µM): 1.01%
